Results reported in patent US20230104936A1, “TRPML MODULATORS” (Casma Therapeutics, Inc., priority 2019, published 2023).

Test system: TFEB
Assay: TFEB nuclear translocation assay, HeLa wt cells
Format: cell-based
Conditions: 2 hrs compound treatment, Table 1 does not say HeLa wt or TRPML1 KO
In short: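 Cells are plated overnight, exposed to compounds for 2 hrs at 37° C, fixed with 4% PFA, blocked, and stained overnight at 4° C with rabbit anti-TFEB. After Alexa 488 secondary and Hoechst, nuclei and a perinuclear ring are segmented to give a nuclear:ring intensity ratio and AC50.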

Structure (SMILES)	AC50 (Homo sapiens, HeLa, 2 h) [nM]	AC50 [nM]
CN(C)S(=O)(=O)c1ccc(C(Nc2cccc(Cl)c2N2CCOCC2)C(F)(F)F)cc1 (stereo not shown) [Compound A-342, 4-(1-{[3-chloro-2-(morpholin-4-yl)phenyl]amino}-2,2,2-trifluoroethyl)-N,N-dimethylbenzene-1-sulfonamide]	8010 to 9990	–
CN(C)S(=O)(=O)c1ccc(S(=O)(=O)Nc2ccccc2N2CCN(c3ccn(C(C)(C)C)n3)CC2)cc1 [Compound A-414, N4-{2-[4-(1-tert-butyl-1H-pyrazol-3-yl)piperazin-1-yl]phenyl}-N1,N1-dimethylbenzene-1,4-disulfonamide]	≤ 2000	–
CN(C)S(=N)(=O)c1ccc(S(=O)(=O)Nc2cccc(F)c2N2CCC(CN3CCOCC3(C)C)CC2)cc1 (stereo not shown) [Compound A-867, 4-[(2-{4-[(3,3-dimethylmorpholin-4-yl)methyl]piperidin-1-yl}-3-fluorophenyl)sulfamoyl]-N,N-dimethylbenzene-1-sulfonoimidamide]	≤ 2000	–
O=S(=O)(CCO)c1ccc(S(=O)(=O)Nc2ccccc2N2CCC(c3ccc(Cl)cc3F)CC2)cc1 [Compound A-637, N-{2-[4-(4-chloro-2-fluorophenyl)piperidin-1-yl]phenyl}-4-(2-hydroxyethanesulfonyl)benzene-1-sulfonamide]	≥ 10000	–
CN(C)S(=O)(=O)c1ccc(NC(=O)c2ccccc2N2CCN(c3ccc(Cl)cc3F)CC2)cc1 [Compound A-9, 2-(4-(4-chloro-2-fluorophenyl)piperazin-1-yl)-N-(4-(N,N-dimethylsulfamoyl)phenyl)benzamide]	≤ 2000	–
CC(c1cccc(F)c1N1[C@@H]2CCC[C@H]1CC2)S(=O)(=O)c1ccc(S(=N)(=O)N(C)C)cc1 (single isomer, unassigned) [Compound A-988, 4-((1-(2-(8-azabicyclo[3.2.1]octan-8-yl)-3-fluorophenyl)ethyl)sulfonyl)-N,N-dimethylbenzenesulfonimidamide]	≥ 10000	–
CC(C(=O)N1CCN(c2ccccc2NS(=O)(=O)c2ccc(S(=O)(=O)N(C)C)cc2)CC1)C(C)(C)C (stereo not shown) [Compound A-428, N1,N1-dimethyl-N4-{2-[4-(2,3,3-trimethylbutanoyl)piperazin-1-yl]phenyl}benzene-1,4-disulfonamide]	≤ 2000	–
CCOC(=O)c1ccc(S(=O)(=O)Nc2ccccc2N2CCC(c3ccc(Cl)cc3F)CC2)cc1 [Compound A-41, ethyl 4-({2-[4-(4-chloro-2-fluorophenyl)piperidin-1-yl]phenyl}sulfamoyl)benzoate]	≥ 10000	–
C[C@H]1COC[C@H](C)N1CC1CCN(c2c(F)cccc2NS(=O)(=O)c2ccc(S(=N)(=O)N(C)C)cc2)CC1 (single isomer, unassigned) [Compound A-833]	≤ 2000	–
COC(C)C1(C)CCN(c2ccccc2NS(=O)(=O)c2ccc(S(=O)(=O)N(C)C)cc2)CC1 (stereo not shown) [Compound A-741, N4-{2-[4-(1-methoxyethyl)-4-methylpiperidin-1-yl]phenyl}-N1,N1-dimethylbenzene-1,4-disulfonamide]	≤ 2000	–
CN1Cc2cc(F)ccc2C12CCN(c1ccccc1NS(=O)(=O)c1ccc(S(=O)(=O)N(C)C)cc1)CC2 [Compound A-310, N4-(2-{5-fluoro-2-methyl-2,3-dihydrospiro[isoindole-1,4′-piperidin]-1′-yl}phenyl)-N1,N1-dimethylbenzene-1,4-disulfonamide; formic acid]	≤ 2000	–
CS(=O)(=O)c1ccc(S(=O)(=O)Nc2ccccc2N2CCC(O)(c3ccc(F)cc3)CC2)cc1 [Compound A-203, N-{2-[4-(4-fluorophenyl)-4-hydroxypiperidin-1-yl]phenyl}-4-methanesulfonylbenzene-1-sulfonamide]	2010 to 8000	–
CN(C)S(=O)(=O)c1ccc(S(=O)(=O)Nc2cccc(Cl)c2N2CCOCC2)cc1 [Compound A-311, N4-[3-chloro-2-(morpholin-4-yl)phenyl]-N1,N1-dimethylbenzene-1,4-disulfonamide]	2010 to 8000	–
CN1CC2(CCN(c3ccccc3NS(=O)(=O)c3ccc(S(=O)(=O)N(C)C)cc3)CC2)c2ncccc21 [Compound A-271, N1,N1-dimethyl-N4-(2-{1′-methyl-1′,2′-dihydrospiro[piperidine-4,3′-pyrrolo(3,2-b]pyridin]-1-yl}phenyl)benzene-1,4-disulfonamide]	≤ 2000	–
O=S(=O)(Nc1ccccc1N1CCN(c2ccc(Cl)cc2F)CC1)C1CCCCC1 [Compound A-8, N-{2-[4-(4-chloro-2-fluorophenyl)piperazin-1-yl]phenyl}cyclohexanesulfonamide]	≥ 10000	–
O=S(=O)(Nc1cccc(Cl)c1N1CCCCC1)c1ccc(C2(C(F)(F)F)N=N2)cc1 [Compound A-749, N-[3-chloro-2-(piperidin-1-yl)phenyl]-4-[3-(trifluoromethyl)-3H-diazirin-3-yl]benzene-1-sulfonamide]	2010 to 8000	–
CN(C)S(=O)(=O)c1ccc(S(=O)(=O)Nc2ccccc2N2CCN(C(=O)C34CC5CC(CC(C5)C3)C4)CC2)cc1 [Compound A-399, N4-{2-[4-(adamantane-1-carbonyl)piperazin-1-yl]phenyl}-N1,N1-dimethylbenzene-1,4-disulfonamide]	≤ 2000	–

Structure (SMILES)	AC50 (Homo sapiens, HeLa, 2 h) [nM]	AC50 [nM]
CN1CC2(CCN(c3ccccc3NS(=O)(=O)c3ccc(SC(C)(C)C)cc3)CC2)c2ccc(F)cc21 [Compound A-517, 4-(tert-butylsulfanyl)-N-(2-{6-fluoro-1-methyl-1,2-dihydrospiro[indole-3,4′-piperidin]-1′-yl}phenyl)benzene-1-sulfonamide]	2010 to 8000	–
CC(C)(C)C(=O)N1CCN(c2ccccc2NS(=O)(=O)c2ccc(C(F)(F)C(F)(F)F)cc2)CC1 [Compound A-537, N-{2-[4-(2,2-dimethylpropanoyl)piperazin-1-yl]phenyl}-4-(1,1,2,2,2-pentafluoroethyl)benzene-1-sulfonamide]	8010 to 9990	–
O=S(=O)(Nc1ccccc1N1CCN(c2ccc(Cl)cc2F)CC1)c1cccnc1 [Compound A-1, N-{2-[4-(4-chloro-2-fluorophenyl)piperazin-1-yl]phenyl}pyridine-3-sulfonamide]	≤ 2000	–
CN(C)S(=O)(=O)c1ccc(S(=O)(=O)Nc2ccccc2N2CCC3(CC2)COC(C)(C)C3)c(F)c1 [Compound A-653, N4-(2-{3,3-dimethyl-2-oxa-8-azaspiro[4.5]decan-8-yl}phenyl)-3-fluoro-N1,N1-dimethylbenzene-1,4-disulfonamide]	2010 to 8000	–
CN(C)S(=O)(=O)c1ccc(S(=O)(=O)Nc2ccccc2N2CCC(F)(CCO)CC2)cc1 [Compound A-722, N4-{2-[4-fluoro-4-(2-hydroxyethyl)piperidin-1-yl]phenyl}-N1,N1-dimethylbenzene-1,4-disulfonamide]	≥ 10000	–
CN(C)S(=O)(=O)c1ccc(S(=O)(=O)Nc2ccccc2N2CCN(C(=O)C3CC(F)(F)C3)CC2)cc1 [Compound A-429, N4-{2-[4-(3,3-difluorocyclobutanecarbonyl)piperazin-1-yl]phenyl}-N1,N1-dimethylbenzene-1,4-disulfonamide]	2010 to 8000	–
C[C@@H]1COC[C@@H](C)N1CC1CN(c2c(F)cccc2NS(=O)(=O)c2ccc(S(=O)(=O)N(C)C)cc2)C1 (stereo in doubt) [Compound A-873, N1-(2-(3-((3,5-dimethylmorpholino)methyl)azetidin-1-yl)-3-fluorophenyl)-N4,N4-dimethylbenzene-1,4-disulfonamide]	≥ 10000	–
CN(C)S(=O)(=O)c1ccc(S(=O)(=O)Nc2ccccc2C2CCN(c3ccc(Cl)cc3F)CC2)cc1 [Compound A-22, N1-(2-(1-(4-chloro-2-fluorophenyl)piperidin-4-yl)phenyl)-N4,N4-dimethylbenzene-1,4-disulfonamide]	2010 to 8000	–
C[C@H](c1cccc(F)c1N1CCC(C2(N3CCOCC3)CC2)CC1)S(=O)(=O)c1ccc(S(=N)(=O)N(C)C)cc1 (single isomer, unassigned) [Compound A-893]	–	≥ 10000
COc1ccc(N2CCOCC2)c(NS(=O)(=O)c2ccc3c(c2)CCC3)c1 [Compound A-521, N-[5-methoxy-2-(morpholin-4-yl)phenyl]-2,3-dihydro-1H-indene-5-sulfonamide]	≤ 2000	–
CN(C)S(=O)(=O)c1ccc(S(=O)(=O)Nc2cccc(F)c2N2CCC(C)(C(F)F)CC2)cc1 [Compound A-830, N4-{2-[4-(difluoromethyl)-4-methylpiperidin-1-yl]-3-fluorophenyl}-N1,N1-dimethylbenzene-1,4-disulfonamide]	≤ 2000	–
CN(C)S(=O)(=O)c1ccc(S(=O)(=O)Nc2cccc(F)c2N2CCC(N)(C(F)(F)F)CC2)cc1 [Compound A-821, N4-{2-[4-amino-4-(trifluoromethyl)piperidin-1-yl]-3-fluorophenyl}-N1,N1-dimethylbenzene-1,4-disulfonamide]	≤ 2000	–
CC(C)S(=O)(=O)c1ccc(S(=O)(=O)Nc2ccccc2N2CCC(O)(c3ccc(F)cn3)CC2)cc1 [Compound A-413]	8010 to 9990	–
COCC1(C)CCN(c2ccccc2NS(=O)(=O)c2ccc3c(c2)C(C)(C)OC3)CC1 [Compound A-683, N-{2-[4-(methoxymethyl)-4-methylpiperidin-1-yl]phenyl}-3,3-dimethyl-1,3-dihydro-2-benzofuran-5-sulfonamide]	2010 to 8000	–
CC1(C)CC2(CCN(c3ccccc3NS(=O)(=O)c3ccc(C(F)F)cc3)CC2)CO1 [Compound A-671, 4-(difluoromethyl)-N-(2-{3,3-dimethyl-2-oxa-8-azaspiro[4.5]decan-8-yl}phenyl)benzene-1-sulfonamide]	≤ 2000	–
CS(=O)(=O)c1ccc(S(=O)(=O)Nc2ccccc2N2CCC(c3ccc(F)cc3F)CC2)cc1 [Compound A-100, N-{2-[4-(2,4-difluorophenyl)piperidin-1-yl]phenyl}-4-methanesulfonylbenzene-1-sulfonamide]	≤ 2000	–
CN(C)S(=O)(=O)c1ccc(S(=O)(=O)Nc2cccc(F)c2N2CCC(N3CCC4(CCOC4)C3)CC2)cc1 (single isomer, unassigned) [Compound A-910, N1-(2-(4-(2-oxa-7-azaspiro[4.4]nonan-7-yl)piperidin-1-yl)-3-fluorophenyl)-N4,N4-dimethylbenzene-1,4-disulfonamide]	–	2010 to 8000
